The viability, T/C is the result in the treated group divided by that in the control group, in per cent. The term IC50 denotes the concentration needed to halve the response being measured.

The test system of this test is OVCAR-5 complex spheroids with HUVEC/MSC, viability, % test/control. The experiment in a line: Anticancer human tumor OVCAR-5 cell line growth inhibition [AhR].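 For all read-outs here: spheroids exposed to compounds for 7 days.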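 For viability, T/C: 100% = DMSO vehicle control wells.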 As to conditions: for viability, T/C: stronger effect = lower value. In outline: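 Complex tumor spheroids co-cultured with HUVEC and human MSC stroma; AhR antagonists tested in combination with standard-of-care and investigational agents. Top concentration at or near clinical Cmax (else 10 microM), half-log dilutions; growth expressed as percent test/control.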

Setting [1] is: curve of first compound, second compound 0.1 µM.
Where [2] appears, read: curve of first compound, second compound 0.316 µM.
[3] abbreviates: curve of first compound, second compound 1 µM.
Where [4] appears, read: curve of first compound, second compound 3.16 µM.
Setting [5] is: curve of first compound, second compound 10 µM.
[6] abbreviates: second compound 0.1 µM, first compound 0.0316 µM.
[7] abbreviates: second compound 0.1 µM, first compound 0.1 µM.
The mark [8] stands for this setting: second compound 0.316 µM, first compound 0.0316 µM.
The mark [9] stands for this setting: second compound 0.316 µM, first compound 0.1 µM.
The mark [10] stands for this setting: second compound 1 µM, first compound 0.0316 µM.
Where [11] appears, read: second compound 1 µM, first compound 0.1 µM.
Where [12] appears, read: second compound 3.16 µM, first compound 0.0316 µM.
The mark [13] stands for this setting: second compound 3.16 µM, first compound 0.1 µM.
Setting [14] is: second compound 10 µM, first compound 0.0316 µM.
Where [15] appears, read: second compound 10 µM, first compound 0.1 µM.

Each structure is given as a SMILES string. Where “and” joins values, the source holds several entries; their conditions need not be identical. Equal entries are not always repeated.

For the compound `CC(C)c1c(-c2ccccc2)nc2c(C#N)c[nH]n2c1=O`, the viability, T/C by setting is: (compound 0.0316 µM) 103% and 100% and 101%; (compound 0.1 µM) 103% and 99.8% and 106%; (compound 0.316 µM) 104% and 101% (2×); (compound 1 µM) 105% and 104% and 101%; (compound 3.16 µM) 105% (2×) and 103%; (compound 10 µM) 109% and 106% (2×). Moreover, the concentration for half-maximal inhibition (IC50) (curve of compound) is more than 10 µM.

As for `CC1COCCN1c1cc(C2(S(C)(=N)=O)CC2)nc(-c2ccnc3[nH]ccc23)n1` (stereo unspecified), the viability, T/C is, setting by setting: (compound 0.0316 µM) 101% and 102% and 99.5%; (compound 0.1 µM) 101% (2×) and 99.1%; (compound 0.316 µM) 104% and 102% and 96.8%; (compound 1 µM) 100% and 97.1% and 98%; (compound 3.16 µM) 89.4% and 71.8% and 75.2%; (compound 10 µM) 46.7% and 37% and 41%. Also, the IC50 (curve of compound) is 9.16 µM and 6.5 µM and 7.4 µM.

With `O=C(c1cc(Cc2n[nH]c(=O)c3ccccc23)ccc1F)N1CCN(C(=O)C2CC2)CC1` + Cc1cncc(-c2nc(NCCc3c[nH]c4ccccc34)c3ncn(C(C)C)c3n2)c1, the IC50 reads like this: under setting [1], more than 10 µM; under setting [2], more than 10 µM; under setting [3], more than 10 µM; under setting [4], more than 10 µM; under setting [5], less than 0.0316 µM. Further, the viability, T/C under setting [6] was 93.8%; the viability, T/C under setting [7] was 97.7%; the viability, T/C (second compound 0.1 µM, first compound 0.316 µM) was 93.7%; the viability, T/C (second compound 0.1 µM, first compound 1 µM) was 87.5%; the viability, T/C (second compound 0.1 µM, first compound 3.16 µM) was 91.5%; the viability, T/C (second compound 0.1 µM, first compound 10 µM) is 86.8%. Also, the viability, T/C runs as follows: under setting [8], 93.9%; under setting [9], 98.7%; (second compound 0.316 µM, first compound 0.316 µM) 95.4%; (second compound 0.316 µM, first compound 1 µM) 89.9%; (second compound 0.316 µM, first compound 3.16 µM) 84.3%; (second compound 0.316 µM, first compound 10 µM) 83.7%. Besides, the viability, T/C runs as follows: under setting [10], 84.5%; under setting [11], 87.7%; (second compound 1 µM, first compound 0.316 µM) 91.6%; (second compound 1 µM, first compound 1 µM) 87%; (second compound 1 µM, first compound 3.16 µM) 86.2%; (second compound 1 µM, first compound 10 µM) 77.3%. The viability, T/C is 78.2% under setting [12]; 77.8% under setting [13]; 75.2% (second compound 3.16 µM, first compound 0.316 µM); 73.2% (second compound 3.16 µM, first compound 1 µM); 71.8% (second compound 3.16 µM, first compound 3.16 µM); 64.8% (second compound 3.16 µM, first compound 10 µM). Besides, the viability, T/C runs as follows: under setting [14], 14.8%; under setting [15], 12.9%; (second compound 10 µM, first compound 0.316 µM) 15%; (second compound 10 µM, first compound 1 µM) 12%; (second compound 10 µM, first compound 3.16 µM) 13.7%; (second compound 10 µM, first compound 10 µM) 13.1%.

As for `CC[C@@]1(O)C(=O)OCc2c1cc1n(c2=O)Cc2cc3c(CN(C)C)c(O)ccc3nc2-1`, the viability, T/C was 102% and 99.2% and 104% (compound 0.000316 µM); 101% and 98.1% and 106% (compound 0.001 µM); 97.5% and 89.9% and 98.5% (compound 0.00316 µM); 88% and 79.8% and 89.2% (compound 0.01 µM); 57% and 37.1% and 61.3% (compound 0.0316 µM); 50.6% and 40.1% and 46.5% (compound 0.1 µM). In addition, the half-maximal inhibitory concentration (IC50) (curve of compound) is > 0.1 µM and 0.023 µM and 0.0759 µM.

Regarding `CC[C@@]1(O)C(=O)OCc2c1cc1n(c2=O)Cc2cc3c(CN(C)C)c(O)ccc3nc2-1` + Cc1cncc(-c2nc(NCCc3c[nH]c4ccccc34)c3ncn(C(C)C)c3n2)c1, the IC50 under setting [1] was more than 0.1 µM; the IC50 under setting [2] is more than 0.1 µM; the concentration for half-maximal inhibition (IC50) under setting [3] is more than 0.1 µM; the concentration for half-maximal inhibition (IC50) under setting [4] stood at 0.0253 µM; the half-maximal inhibitory concentration (IC50) under setting [5] is less than 0.000316 µM. In addition, the viability, T/C was 100% (second compound 0.1 µM, first compound 0.000316 µM); 105% (second compound 0.1 µM, first compound 0.001 µM); 97.4% (second compound 0.1 µM, first compound 0.00316 µM); 87% (second compound 0.1 µM, first compound 0.01 µM); 49.3% under setting [6]; 52.3% under setting [7]. For the same compound, the viability, T/C reads like this: (second compound 0.316 µM, first compound 0.000316 µM) 97.9%; (second compound 0.316 µM, first compound 0.001 µM) 100%; (second compound 0.316 µM, first compound 0.00316 µM) 92.7%; (second compound 0.316 µM, first compound 0.01 µM) 82.2%; under setting [8], 50%; under setting [9], 52.8%. Besides, the viability, T/C runs as follows: (second compound 1 µM, first compound 0.000316 µM) 93.6%; (second compound 1 µM, first compound 0.001 µM) 91.6%; (second compound 1 µM, first compound 0.00316 µM) 90.1%; (second compound 1 µM, first compound 0.01 µM) 79.9%; under setting [10], 48.4%; under setting [11], 55.8%. Moreover, the viability, T/C reads like this: (second compound 3.16 µM, first compound 0.000316 µM) 79.2%; (second compound 3.16 µM, first compound 0.001 µM) 79.5%; (second compound 3.16 µM, first compound 0.00316 µM) 77.2%; (second compound 3.16 µM, first compound 0.01 µM) 62.9%; under setting [12], 43.4%; under setting [13], 50.5%. The viability, T/C (second compound 10 µM, first compound 0.000316 µM) was 22.3%; the viability, T/C (second compound 10 µM, first compound 0.001 µM) was 24.9%; the viability, T/C (second compound 10 µM, first compound 0.00316 µM) is 26.9%; the viability, T/C (second compound 10 µM, first compound 0.01 µM) was 16.5%; the viability, T/C under setting [14] is 6.78%; the viability, T/C under setting [15] was 14.5%.

Consider `Cc1cncc(-c2nc(NCCc3c[nH]c4ccccc34)c3ncn(C(C)C)c3n2)c1`, for which the viability, T/C (compound 0.1 µM) was 98.8% [middle of 20 runs]; the viability, T/C (compound 0.316 µM) is 97.6% [middle of 19 runs]; the viability, T/C (compound 1 µM) is 92.7% [middle of 20 runs]; the viability, T/C (compound 3.16 µM) was 78.4% [middle of 20 runs]. Besides, the concentration for half-maximal inhibition (IC50) (compound alone, run of 08/16/2022) was 5.52 µM [middle of 22 runs].

These data come from PubChem BioAssay AID1919015 (Molecular Pharmacology Branch, DTP, NCI, 2023).
